Assay results from BindingDB's records for doi:10.1016/j.chembiol.2017.01.003 (The University of Queensland, 2017).

Target: T1, Transcription factor SOX-18 (Mouse, UniProt P43680)
T1 sequence (P43680 whole entry): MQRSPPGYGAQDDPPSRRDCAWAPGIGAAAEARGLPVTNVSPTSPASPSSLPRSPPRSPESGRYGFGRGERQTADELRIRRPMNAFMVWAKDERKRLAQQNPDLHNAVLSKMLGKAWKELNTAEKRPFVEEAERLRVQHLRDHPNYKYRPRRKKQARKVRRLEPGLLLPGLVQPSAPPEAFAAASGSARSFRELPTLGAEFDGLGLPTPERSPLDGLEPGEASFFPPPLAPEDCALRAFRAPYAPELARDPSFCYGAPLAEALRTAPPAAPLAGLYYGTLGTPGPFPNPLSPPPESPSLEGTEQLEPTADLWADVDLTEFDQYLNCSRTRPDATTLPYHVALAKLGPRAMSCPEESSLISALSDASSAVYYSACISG
Assay: Fluorescence Polarization Assay
Details: pH 7.5; 37 °C
Experimental: The DNA-binding competition assay was performed in 25 μL, in black 384-well plates, using either 30 mM HEPES (N-2-Hydroxyethylpiperazine-N'-2-Ethanesulfonic Acid) (pH 7.5, with 100 mM KCl, 40 mM NaCl, 10 mM NH4OAc, 10 mM Guanidinium, 2 mM MgCl2, 0.5 mM EDTA, 0.01% NP-40) for mouse full length SOX18, or Tris-NaCl (10 mM Tris pH 8.0 and 100 mM NaCl) for SOX-HMG fragments. All experiments were performed using a 40bp double-stranded Prox1-DNA element with 5' fluorescein amidite (FAM) label (Sigma Proligo or InVitrogen). Optimum binding levels were obtained at 200 nM of mouse full length SOX18 and 60 nM of SOX-HMG fragment, in presence of 5 nM labelled DNA. Controls consisted of free labelled DNA (low FP milli-Polarization index, mP), labelled DNA in presence of protein (negative control, high mP), and labelled DNA and protein in presence of 400 time competing excess of unlabelled DNA (positive control, low mP). Depending on compound, final DMSO concentrations ranged from 2 to 3.33% v/v. After mixing protein, DNA probe and compound, plates were sealed and briskly agitated in the dark for 5 minutes at room temperature, 10 minutes at 37 °C, and 30 minutes at room temperature, before reading fluorescencepolarization on a Tecan M1000Pro (λexc = 485 nm, λem = 525 nm). All experiments were performed intriplicates.

First: O=C(O)c1c(O)cccc1CCc1ccc2ccccc2c1 [Sm4]
Second: O=C(COc1ccc2ccccc2c1)c1ccc(O)cc1O [Sm12]
The IC50 of the first is 30-fold lower: 97.5 µM for the first, 2880 µM for the second. The first is the more potent here.

Going from `COc1ccc(OCC(=O)c2ccc(O)cc2O)cc1` [Sm11] to `Cc1cccc2c(=O)c3c(O)cc(O)cc3oc12` [Sm13], the IC50 falls from 3800 µM to 481 µM (7.9-fold). The second is the more potent here.

First: O=C(O)c1c(O)cccc1COCCC1C=CC=CC1 (stereo unspecified) [Sm5]
Second: COc1cccc(CCCCCCc2ccccc2)c1C(=O)O [Sm8]
The IC50 of the first is 3.4-fold higher: 1110 µM for the first, 327 µM for the second.
